Test results as given in patent publication US9279806B2, “Water-soluble AIE luminogens for monitoring and retardation of fibrillation of amyloid proteins” (THE HONG KONG UNIVERSITY OF SCIENCE AND TECHNOLOGY, priority 2005, dated 2016).

Tests used:
[1] = system: G1 (ssDNA that mimics human telomeric sequence) / G-quadruplex; assay: DNA probing and quadruplex recognition by FL/CD of TTAPE with G1; format: binding
Experimental: G1 is a 21-mer ssDNA that mimics human telomeric sequence. When the DNA is added into a solution of TTAPE in a Tris-HCl buffer, the solution starts to luminesce (FIG. 27A). Similar FL “lightup” phenomenon has been observed in the thiazole orange system. The I/I0 ratio of TTAPE at 470 nm increases rapidly in a narrow DNA concentration range and reaches its maximum at [G1]=5 μM (FIG. 27B). While conventional FL dyes suffer from self-quenching problems at high dye concentrations, the FL of TTAPE is continuously intensified with increasing its concentration (FIG. 28 and FIG. 27B), thanks to its unique AIE feature. In the aqueous buffer, the cationic dye spontaneously binds to the anionic DNA via electrostatic attraction, resulting in the formation of a TTAPE/G1 complex. Hydrophobic interaction between TTAPE and G1 may have also played a role in the binding process. These intermolecular forces lock conformations of the TTAPE molecules bound to the G1 strands. Consequently, the intramolecular rotations of TTAPE are restricted, which thus blocks its radiationless relaxation pathways and activates its FL process.
A complex of ssDNA and TTAPE was prepared by mixing 10 μL G 1 (0.1 mM) and 50 μL TTAPE (0.01 mM) in 5 mM Tris-HCl buffer in a 1.5 ml Eppendorf cup. The solution was incubated at 4° C. for 30 min. G-quadruplex formation was induced by adding 10 μl of a 1.0 M KCl solution into the Eppendorf cup. The final concentrations of TTAPE and G1 were kept at 4.5 and 9.0 μM, respectively. For other cationic species, the same amounts of corresponding salts were used. Kinetic experiment was conducted immediately after the injection of the cationic solution, while other spectral measurements were performed after an incubation period of 30 min.
DNA samples of G1, C1 and C2 were obtained from Operon in desalt purity and used without further purification. G1 was chosen as a model ssDNA mimicking the human telomeric repeat sequence d(T2AG3), which is capable of forming intramolecular G-quadruplex. Concentrations of the DNA strands were determined by measuring their absorptivity (E) values at 260 nm in a 100 μL quartz cuvette [ε(×10^5 M^−1 cm^−1): 2.14 (G1), 1.85 (C1), 1.85 (C2)]. Water was purified by a Millipore filtration system. Buffer solution was prepared by titrating 5 mM Tris with HCl until its pH value reached 7.50. All experiments were performed at room temperature unless otherwise specified.

[2] = system: G1; assay: PAGE assay of G1, gel poststaining; design: species or system human; conditions: gel poststained with 10 μM TTAPE for 5 min
Experimental: The FL “turn-on” switching of TTAPE by binding to G1 strand inspires us to check whether it can be used as a DNA marker in the PAGE assay. Electrophoresis assay of G1 was performed on a Hoefer miniVE system in 1xTBE buffer under nondenaturing conditions using a 20% native poly(acrylamide) gel at 100V for 3 h at […]. An AlphaDigiDoc™ system with a DE-500 MultiImage™ II light cabinet and an ML-26 UV transilluminator (Alpha Innotech) was used for data collection and analysis. The gel was poststained with a 10 μM TTAPE solution for 5 min at room temperature, rinsed with distilled water, and photographed under UV light at 290-330 nm by the gel documentation system. EB was used to poststain the gel in parallel for comparison. Concentrations of G1 in the range of 0.5-10.0 μM were used to check the visualizability of the dye-stained DNA in the PAGE assay.
After running PAGE of G1 in a Tris-borate-ethylene-diaminetetraacetic acid (TBE) buffer, the gel is stained by a TTAPE solution for 5 min. […] Ethidium bromide (EB) is a widely used visualization agent for PAGE assay. […] The G1 bands are not visualized until the gel has been stained by EB for as long as 30 min. Band visualization by EB is usually realized by its intercalation into the hydrophobic region of DNA, which makes the staining a slow process. […]

[3] = entry 1: K+ added to TTAPE/G1 mixture, room temperature
[4] = entry 2: G1 added to TTAPE/K+ mixture
[5] = entry 3: TTAPE added to G1/K+ mixture

CC[N+](CC)(CC)CCOc1ccc(C(=C(c2ccc(OCC[N+](CC)(CC)CC)cc2)c2ccc(OCC[N+](CC)(CC)CC)cc2)c2ccc(OCC[N+](CC)(CC)CC)cc2)cc1.[Br-].[Br-].[Br-].[Br-] [TTAPE, 1,1,2,2-tetrakis[4-(2-triethylammonioethoxy)phenyl]ethene tetrabromide]
Red-shift of excitation and emission spectra on quadruplex formation ([1]; K+ added to TTAPE/G1): ~20 nm
G1 concentration at which I/I0 at 470 nm reaches its maximum ([1]; TTAPE 4.5 μM in Tris-HCl buffer): 5 µM
CD intensity (relative intensity at 295 nm) [1, 3]: 1.00
FL intensity (relative intensity at 492 nm) [1, 3]: 1.00
CD intensity (relative intensity at 295 nm) [1, 4]: 0.92
FL intensity (relative intensity at 492 nm) [1, 4]: 0.82
CD intensity (relative intensity at 295 nm) [1, 5]: 0.88
FL intensity (relative intensity at 492 nm) [1, 5]: 0.70
Detectable G1 concentration (sensitivity test) [2]: 0.5 µM
